From the supplement of paper PMC5579334

Assays:
HS-PSS [1] = experiment: relative IC50 (inflection point of fitted dose-response curve, CellTox-Green cytotoxicity, 72 h; top asymptote may be below 50%); higher = less potent
Outline: (§1)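 MPNST cell lines and primary human Schwann cells were grown for 72 h at 37 °C in 384-well plates containing five 10-fold compound dilutions. CellTox-Green, added before seeding at a final 1:1000 dilution, gave fluorescence from DNA released by disrupted cells, and signals were scaled to vehicle and positive-control wells. Curves were fitted with a four-parameter logistic model. Drug sensitivity score and relative IC50 come from these fits, with IC50 censored at the top concentration.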

HSC1 [2] = experiment: as above
Outline: as §1

HSC2 [3] = experiment: as above
Outline: as §1

S1507-2 [4] = experiment: as above
Outline: as §1

ST8814 [5] = experiment: as above
Outline: as §1

STS26T [6] = experiment: as above
Outline: as §1

HS-PSS [7] = experiment: relative IC50 (inflection point of fitted dose-response curve, CellTiter-Glo viability, 72 h; top asymptote may be below 50% inhibition); higher = less potent
Outline: (§2)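 For this screen, 384-well plates were preprinted with each compound at five concentrations in 10-fold steps and seeded with MPNST cell lines or primary human Schwann cells at 750–1000 cells per well. Incubation lasted 72 h at 37 °C, 5% CO2, and CellTiter-Glo ATP luminescence, scaled between vehicle and positive-control wells and averaged over duplicates where available, served as viability. Logistic fits with four parameters were applied. Relative IC50 (censored at the top concentration) and drug sensitivity score derive from these fits, and percent inhibition is at the top concentration.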

HS-Sch-2 = experiment: as above
Outline: as §2

HSC1 [8] = experiment: as above
Outline: as §2

HSC2 [9] = experiment: as above
Outline: as §2

S1507-2 [10] = experiment: as above
Outline: as §2

S462 = experiment: as above
Outline: as §2

ST8814 [11] = experiment: as above
Outline: as §2

STS26T [12] = experiment: as above
Outline: as §2

YST-1 = experiment: as above
Outline: as §2

Structure (SMILES)	relative IC50 (HS-PSS [1]) [nM]	relative IC50 (HSC1 [2]) [nM]	relative IC50 (HSC2 [3]) [nM]	relative IC50 (S1507-2 [4]) [nM]	relative IC50 (ST8814 [5]) [nM]	relative IC50 (STS26T [6]) [nM]	relative IC50 (HS-PSS [7]) [nM]	relative IC50 (HS-Sch-2) [nM]	relative IC50 (HSC1 [8]) [nM]	relative IC50 (HSC2 [9]) [nM]	relative IC50 (S1507-2 [10]) [nM]	relative IC50 (S462) [nM]	relative IC50 (ST8814 [11]) [nM]	relative IC50 (STS26T [12]) [nM]	relative IC50 (YST-1) [nM]
CC(=O)O[C@H]1C(=O)[C@@]2(C)[C@H]([C@H](OC(=O)c3ccccc3)[C@]3(O)C[C@H](OC(=O)[C@H](O)[C@@H](NC(=O)c4ccccc4)c4ccccc4)C(C)=C1C3(C)C)[C@]1(OC(C)=O)CO[C@@H]1C[C@@H]2O [Paclitaxel]	> 1000	24.4	19	42.3	25	1.72	6.92	8.71	8.18	8.36	18.5	3.84	21.7	4.63	3.83
O=C(CCCCCCC(=O)Nc1ccccc1)NO [Vorinostat]	2450	3780	3430	2660	3150	2570	2820	1770	1310	1570	1680	2090	1690	2250	687
CC[C@@H]1C(=O)N(C)c2cnc(Nc3ccc(C(=O)N[C@H]4CC[C@H](N5CCN(CC6CC6)CC5)CC4)cc3OC)nc2N1C(C)C [Volasertib]	> 1000	29.3	25.2	12.7	34.1	2.68	42.1	10.6	34.5	33.2	16.1	15.4	33.6	7.29	17.7
C#Cc1cccc(Nc2ncnc3cc(OC)c(OCCCCCCC(=O)NO)cc23)c1 [CUDC-101]	1850	1130	984	1810	1270	2500	699	438	470	545	909	732	801	1820	159
Nc1ccn([C@@H]2O[C@H](CO)[C@@H](O)C2(F)F)c(=O)n1 [Gemcitabine]	50.4	8.57	5.47	2.65	3.86	1.22	19.9	2.09	2.2	2	0.876	0.481	4.13	1.59	8.34
Nc1ncnc2c1nc(N)n2[C@@H]1O[C@H](CO)[C@@H](O)[C@H]1O [8-amino-adenosine]	4130	6650	7010	2820	1730	1060	1620	1230	1360	2250	885	1080	1110	1100	647
O=C(CCBr)N1CCN(C(=O)CCBr)CC1 [Pipobroman]	> 10000	> 10000	> 10000	> 10000	> 10000	> 10000	> 10000	> 10000	> 10000	> 10000	> 10000	> 10000	> 10000	> 10000	> 10000
O=NN(CCCl)C(=O)NC1CCCCC1 [Lomustine]	> 10000	> 10000	> 10000	> 10000	> 10000	> 10000	> 10000	> 10000	> 10000	> 10000	> 10000	> 10000	> 10000	> 10000	> 10000
CC[C@@]1(O)C(=O)OCc2c1cc1n(c2=O)Cc2cc3c(CN(C)C)c(O)ccc3nc2-1 [Topotecan]	869	50.8	237	550	23.3	197	323	136	123	90.9	173	52.4	42.5	202	44.1
COc1ccccc1S(=O)(=O)Nc1ccc2c(c1)CN(C)C(=O)N2 [PFI-1]	> 10000	> 10000	> 10000	3630	2080	> 10000	3730	1670	2820	2120	1670	1710	1530	1470	1720
CN[C@@H]1C[C@H]2O[C@@](C)([C@@H]1OC)n1c3ccccc3c3c4c(c5c6ccccc6n2c5c31)C(=O)N[C@H]4O [UCN-01]	2130	459	158	159	257	24.9	121	63.3	44.8	24.8	19.3	29.5	51.9	44.3	85.9
CC(C)C[C@H](NC(=O)[C@H](CCc1ccccc1)NC(=O)CN1CCOCC1)C(=O)N[C@@H](Cc1ccccc1)C(=O)N[C@@H](CC(C)C)C(=O)[C@@]1(C)CO1 [Carfilzomib]	25.1	24.6	23	25.7	12	8.79	11.7	2.75	11.5	9.67	17.2	4.5	8.99	8.28	4.71
CCCCC(=O)OCC(=O)[C@]1(O)Cc2c(O)c3c(c(O)c2[C@@H](O[C@H]2C[C@H](NC(=O)C(F)(F)F)[C@H](O)[C@H](C)O2)C1)C(=O)c1c(OC)cccc1C3=O [Valrubicin]	> 5000	> 5000	> 5000	> 5000	> 5000	> 5000	422	264	238	258	534	233	285	306	97
